Here are results for nine molecules from PubChem BioAssay (NCI).

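In this assay, cells in 96-well plates receive the compound at five concentrations for 48 hours. Endpoints are linearly interpolated between the surrounding concentrations. The concentration for 50% growth inhibition is given as GI50. TGI marks complete inhibition of growth.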

Holding throughout (experiment): DTP human tumour cell line panel, 48 h
The subject of experiment [1] is 786-0 renal.
The subject of experiment [2] is DU-145 prostate.
Experiment [3] deals with MALME-3M melanoma.
Experiment [4] concerns NCI-H23 lung.
Experiment [5] concerns OVCAR-4 ovarian.
Experiment [6] concerns SF-268 CNS.
Experiment [7] has as its system SNB-19 CNS.
In experiment [8] the test system is T-47D breast.
The subject of experiment [9] is TK-10 renal.
The subject of experiment [10] is UACC-62 melanoma.

With `O=C1/C(=C/c2ccc(Cl)cc2)CN(C(=O)CCN2CCC(=NO)CC2)C/C1=C\c1ccc(Cl)cc1`, the GI50 in [1] is 0.786 µM; in experiment [2], 1.28 µM; in [3], 1.5 µM; in experiment [4] it was 1.13 µM; in experiment [5], 0.834 µM; in [6] it was 0.942 µM. Moreover, the GI50 is 0.817 µM in experiment [7], 1.08 µM in experiment [8], 1.46 µM in experiment [9] and 0.585 µM in experiment [10]. For the same molecule, the TGI in [1] worked out at 2.12 µM; in experiment [2] it was 2.6 µM; in experiment [3], 3.12 µM; in experiment [4], 2.63 µM; in [5] it was 2.39 µM; in experiment [6] it was 2.98 µM. Besides, the TGI came to 2.17 µM in experiment [7], 4.26 µM in experiment [8], 2.93 µM in [9] and 1.72 µM in experiment [10].

Regarding `O=C(c1ccco1)c1nc2cc(C(F)(F)F)ccc2[n+]([O-])c1C(F)(F)F`, the GI50 in [1] is 83.6 µM; in [2] it was 61.7 µM; in experiment [3], 33 µM; in experiment [4], 35.6 µM; in experiment [5] it was 17.9 µM; in [6], 52.4 µM. The GI50 in [7] is 48.3 µM; in [8] it was 19.2 µM; in experiment [9] it was 50.8 µM; in [10], 45.9 µM. The TGI in [1] is above 100 µM; in [2], above 100 µM; in experiment [3], above 100 µM; in experiment [4] it was above 100 µM; in experiment [5] it was 55.2 µM; in experiment [6], above 100 µM. Besides, the TGI in experiment [7], in [8], in [9] and in experiment [10] was above 100 µM in each case.

`COc1cc2cnc(-c3ccccc3)cc2cc1OC`: the TGI was above 100 µM in experiment [1]; above 100 µM in experiment [2]; 60.4 µM in experiment [3]; 56.7 µM in experiment [4]; 82 µM in experiment [5]; above 100 µM in [6]. The TGI was above 100 µM in [7], above 100 µM in experiment [8], 67.2 µM in experiment [9] and 23.4 µM in [10].

`Oc1ccc2ccccc2c1N=Nc1ccc(Cl)cc1`: the TGI in experiment [1], in [2], in [3], in experiment [4], in experiment [5] and in experiment [6] was above 100 µM in each case. The TGI in experiment [7], in [8], in [9] and in experiment [10] was above 100 µM in each case.

As for `CC(C)C[CH2][Ge]([CH2]CC(C)C)([CH2]CC(C)C)[CH2]CC(C)C`, the GI50 in experiment [1], in experiment [2], in experiment [4], in experiment [5], in experiment [6] and in [7] was above 100 µM throughout. Further, the GI50 in experiment [8], in experiment [9] and in experiment [10] was above 100 µM each time. In addition, the TGI in [1], in experiment [2], in experiment [4], in experiment [5], in [6] and in experiment [7] was above 100 µM throughout. The TGI in [8], in [9] and in experiment [10] was above 100 µM in each case.

Regarding `Cc1cc(NCc2cc(Nc3ccnc4cc(Cl)ccc34)ccc2F)nc(N2CCSCC2)n1`, the GI50 in experiment [1] was 1.6 µM; in [2], 3.31 µM; in [4], 1.78 µM; in experiment [5], 1.82 µM; in experiment [6] it was 1.9 µM; in experiment [7], 4.23 µM. Besides, the GI50 was 1.97 µM in experiment [8] and 1.92 µM in [9]. The TGI in [1] was found to be 3.13 µM; in experiment [2], 15.7 µM; in experiment [4], 5.24 µM; in [5], 5.51 µM; in experiment [6] it was 5.27 µM; in experiment [7], 60.7 µM. Also, the figures for the TGI in experiment [8] and in experiment [9] were 4.71 µM and 4.68 µM, respectively.

In the case of `CC(=O)Nc1ccc(-c2csc(Nc3cccc(-c4csc(-c5ccccc5)n4)c3)n2)cc1`, the GI50 is 21 µM in experiment [1]; 22.2 µM in experiment [2]; 16.5 µM in experiment [4]; 20 µM in experiment [6]; 49.7 µM in experiment [7]; 43.4 µM in experiment [8]. Besides, the GI50 is 19.7 µM in [9] and 4.7 µM in experiment [10]. For the same molecule, the TGI in experiment [1], in experiment [2], in [4], in [6], in [7] and in experiment [8] was above 50 µM in each case. Besides, the figures for the TGI in experiment [9] and in experiment [10] were above 50 µM and 14.9 µM, respectively.

For the molecule `O=C(Oc1ccccc1Cl)c1ccccc1Nc1cccc(C(F)(F)F)c1`, the GI50 in experiment [1] is 27.2 µM; in [2] it was 31.8 µM; in experiment [4], 19.8 µM; in [5], 62.7 µM; in experiment [6] it was 20.5 µM; in experiment [7], 73.2 µM. Besides, the figures for the GI50 in experiment [8], in experiment [9] and in experiment [10] were 43.4 µM, 32.7 µM and 16.9 µM, respectively. Also, the TGI in experiment [1] is 96.6 µM; in experiment [2], 89 µM; in experiment [4] it was 73.7 µM; in [5], above 100 µM; in [6], 60.6 µM; in experiment [7], above 100 µM. The figures for the TGI in [8], in [9] and in experiment [10] were above 100 µM, 67.9 µM and 42.9 µM, respectively.

Consider `COc1ccc(/C=C\c2cc(OC)c(OC)c(OC)c2)cc1OCC(=O)Nc1nc2ccccc2s1`, for which the GI50 in experiment [1] was 6.23 µM; in experiment [2], 0.14 µM; in [3] it was 0.338 µM; in [4], 0.0966 µM; in experiment [5], 0.476 µM; in experiment [6] it was 0.23 µM. The GI50 in [8] was 1.59 µM; in experiment [10] it was 0.0587 µM. Also, the TGI was above 100 µM in experiment [1]; above 100 µM in experiment [2]; above 85.3 µM in experiment [3]; above 100 µM in [4]; above 100 µM in [5]; above 100 µM in experiment [6]. The figures for the TGI in experiment [8] and in experiment [10] were above 69.6 µM and above 100 µM, respectively.
